Test results from patent publication US20120077803A1, “Uses Of NK Receptor Antagonists” (NOVARTIS AG, priority 2009, published 2012).

Experiments:
[1] = test system: dogs with flea allergic dermatitis; assay: Skin lesion scores (total lesion score) in dogs with flea-allergic dermatitis; type: in vivo, Beagle dogs
Method: (§1) Flea-allergic laboratory Beagle dogs are infested with fleas. Fifty (50) Ctenocephalides felis fleas, 18 to 20 days old are released on the back of every dog on D1. Dogs are combed 48 hours (D3) after infestation to reduce the number of fleas (reduction of allergen charge).
Skin observations: before flea infestations (D −1) all dogs are typically examined to establish a baseline score for erythema, papules, crusts, scales, alopecia, and excoriation. From D1, daily clinical observations are performed. Each lesion is typically graded using a scale from 0 to 3:
0=no signs 1=mild 2=moderate 3=severe
(§2) Skin lesions are allowed to develop until the total lesion score reaches ˜20. The Test Compound is then given orally at 50, 150 and 300 mg/day, divided into 2 doses, for 5 days. Prednisolone (10 mg/day, orally) is used as a comparator.
Erythema: is typically an acute clinical sign of cutaneous inflammation defined as redness of the skin caused by capillary congestion which can be aggravated by scratching. Excoriation: is typically a punctuate or linear abrasion produced by mechanical means, usually involving only the epidermis but not uncommonly reaching the papillary dermis. […] Papule: is typically a circumscribed, solid elevation with no visible fluid, varying in size from a pinhead to 1 cm. […], formed when there is a high break in the follicle wall. In the presence of bacteria, papules become pustules. Crusts: are typically dried serum, pus, or blood usually mixed with epithelial and sometimes bacterial debris. Scales: are dry or greasy laminated masses of keratin.
(§3) Lesion scores and Actical™ measurement values are typically observed on the following days: • Pre-value: before challenge with fleas • the day of challenge with fleas (Actical™ measurements only); • D1: the day when the total lesion score reached a sufficiently high value (average lesion score 20) and treatment of the animal started. • D2 to D6,
(§4) In the treatment group, lesion scores were taken from 8 dogs. Actical™ measurements were also taken from 6 of these dogs.
• Erythema*, • Excoriations*, • Papules/pustules • Self induced alopecia^o, and • Scales, • Erythema and excoriations are related to pruritus • Self induced alopecia is also related to pruritus but the improvement is […] after several weeks of treatment.
Day 1 of treatment when dogs reached a sufficient lesion score to initiate treatment (average 20). Pre-values (baseline).

[2] = test system: dogs with flea allergic dermatitis; assay: Pruritus intensity by Actical activity monitors in flea allergic dogs; type: in vivo, Beagle dogs; conditions: for Actical day, mean (standard deviation): 6am-6pm; for Actical night, mean (standard deviation): 6pm-6am
Method: as §1
Pruritus intensity: Pruritus intensity is evaluated using activity monitors (Actical™: Actiwatch™; Cambridge Neuorotechnology Ltd, Papworth Everard, UK) according to Nuttall and McEwan. (Nuttal T and McEwan N, “Objective measurement of pruritus in dogs: a preliminary study using activity monitors”. ESVD, 2006, 17 348-351). The physical activity monitors, mounted on collars, are placed around the dog's neck and tightened to the extent that they more with the skin but not so that they compress the underlying tissues. They were put on the dogs on D −5. […] This typically allows to see the difference in activity when the dogs have fleas and are developing pruritic and inflammatory lesions (i.e. dermatitis) and then again their activity during treatment with either the Test Compound or Prednisolone. The activity monitors are typically removed at the end of each phase on D12. Activity monitors measure the movement average within 15 seconds,
as §2, §3, §4

[3] = 50 mg/day orally in 2 doses, day 2
[4] = 50 mg/day orally in 2 doses, day 3
[5] = 50 mg/day orally in 2 doses, day 4
[6] = 50 mg/day orally in 2 doses, day 5
[7] = 50 mg/day orally in 2 doses, day 6
[8] = 150 mg/day orally in 2 doses, day 2
[9] = 150 mg/day orally in 2 doses, day 3
[10] = 150 mg/day orally in 2 doses, day 4
[11] = 150 mg/day orally in 2 doses, day 5
[12] = 150 mg/day orally in 2 doses, day 6
[13] = 300 mg/day orally in 2 doses, day 2
[14] = 300 mg/day orally in 2 doses, day 3
[15] = 300 mg/day orally in 2 doses, day 4
[16] = 300 mg/day orally in 2 doses, day 5
[17] = 300 mg/day orally in 2 doses, day 6
[18] = 50 mg/day orally in 2 doses, day 1 (treatment start)
[19] = 150 mg/day orally in 2 doses, day 1 (treatment start)
[20] = 300 mg/day orally in 2 doses, day 1 (treatment start)

CN(C(=O)c1cc(C(F)(F)F)cc(C(F)(F)F)c1)[C@@H](/C=C/C(=O)N[C@@H]1CCCCNC1=O)Cc1ccc(Cl)c(Cl)c1 [Test Compound, N-[(E)-(R)-1-(3,4-Dichloro-benzyl)-3-((R)-2-oxo-azepan-3-ylcarbamoyl)-allyl]-N-methyl-3,5-bis-trifluoromethyl-benzamide]
Total score ctb (total lesion score compared to baseline), mean (standard deviation) [1, 3]: −3.7 (4.9)
Total score ctb (total lesion score compared to baseline), mean (standard deviation) [1, 4]: −2.8 (5.5)
Total score ctb (total lesion score compared to baseline), mean (standard deviation) [1, 5]: −1.9 (7.1)
Total score ctb (total lesion score compared to baseline), mean (standard deviation) [1, 6]: −2.8 (6.4)
Total score ctb (total lesion score compared to baseline), mean (standard deviation) [1, 7]: −8.7 (9.9)
Total score ctb (total lesion score compared to baseline), mean (standard deviation) [1, 8]: −2.3 (3.3)
Total score ctb (total lesion score compared to baseline), mean (standard deviation) [1, 9]: −3.9 (4.0)
Total score ctb (total lesion score compared to baseline), mean (standard deviation) [1, 10]: −6.4 (3.3)
Total score ctb (total lesion score compared to baseline), mean (standard deviation) [1, 11]: −5.0 (3.8)
Total score ctb (total lesion score compared to baseline), mean (standard deviation) [1, 12]: −8.8 (8.8)
Reduction of the lesion score (inhibition) compared with prednisolone ([1]; 300 mg, 150 mg, 50 mg): in the same range as the potent corticosteroid prednisolone
Total score ctb (total lesion score compared to baseline), mean (standard deviation) [1, 13]: −3.6 (9.1)
Total score ctb (total lesion score compared to baseline), mean (standard deviation) [1, 14]: −4.1 (6.4)
Total score ctb (total lesion score compared to baseline), mean (standard deviation) [1, 15]: −7.6 (8.4)
Total score ctb (total lesion score compared to baseline), mean (standard deviation) [1, 16]: −7.6 (9.7)
Total score ctb (total lesion score compared to baseline), mean (standard deviation) [1, 17]: −6.7 (8.1)
Control of pruritic activity (daytime) compared with Prednisolone ([2]; 150 mg and 50 mg, after 5 days of BID administrations): equipotent to the Prednisolone controls
Actical day, mean (standard deviation) [2, 18]: 88 (46) Average activity counts every 15 secs
Actical day, mean (standard deviation) [2, 3]: 64 (40) Average activity counts every 15 secs
Actical day, mean (standard deviation) [2, 4]: 72 (35) Average activity counts every 15 secs
Actical day, mean (standard deviation) [2, 5]: 67 (37) Average activity counts every 15 secs
Actical day, mean (standard deviation) [2, 6]: 62 (40) Average activity counts every 15 secs
Actical day, mean (standard deviation) [2, 7]: 48 (31) Average activity counts every 15 secs
Actical day, mean (standard deviation) ([2]; 50 mg/day orally in 2 doses, fleas (day of challenge)): 84 (47) Average activity counts every 15 secs
Actical day, mean (standard deviation) ([2]; 50 mg/day orally in 2 doses, pre (before exposure to fleas)): 46 (16) Average activity counts every 15 secs
Actical day, mean (standard deviation) [2, 19]: 58 (17) Average activity counts every 15 secs
Actical day, mean (standard deviation) [2, 8]: 48 (13) Average activity counts every 15 secs
Actical day, mean (standard deviation) [2, 9]: 53 (15) Average activity counts every 15 secs
Actical day, mean (standard deviation) [2, 10]: 44 (17) Average activity counts every 15 secs
Actical day, mean (standard deviation) [2, 11]: 60 (41) Average activity counts every 15 secs
Actical day, mean (standard deviation) [2, 12]: 40 (21) Average activity counts every 15 secs
Actical day, mean (standard deviation) ([2]; 150 mg/day orally in 2 doses, fleas (day of challenge)): 53 (16) Average activity counts every 15 secs
Actical day, mean (standard deviation) ([2]; 150 mg/day orally in 2 doses, pre (before exposure to fleas)): 31 (8) Average activity counts every 15 secs
Actical day, mean (standard deviation) [2, 20]: 114 (35) Average activity counts every 15 secs
Actical day, mean (standard deviation) [2, 13]: 116 (77) Average activity counts every 15 secs
Actical day, mean (standard deviation) [2, 14]: 99 (38) Average activity counts every 15 secs
Actical day, mean (standard deviation) [2, 15]: 107 (28) Average activity counts every 15 secs
Actical day, mean (standard deviation) [2, 16]: 129 (53) Average activity counts every 15 secs
Actical day, mean (standard deviation) [2, 17]: 79 (21) Average activity counts every 15 secs
Actical day, mean (standard deviation) ([2]; 300 mg/day orally in 2 doses, fleas (day of challenge)): 93 (37) Average activity counts every 15 secs
Actical day, mean (standard deviation) ([2]; 300 mg/day orally in 2 doses, pre (before exposure to fleas)): 58 (21) Average activity counts every 15 secs
Actical night, mean (standard deviation) ([2]; 50 mg/day orally in 2 doses, Fleas (day of challenge)): 6.8 (4.9) Average activity counts every 15 secs
Actical night, mean (standard deviation) ([2]; 50 mg/day orally in 2 doses, Pre (before exposure to fleas)): 5.2 (3.3) Average activity counts every 15 secs
Actical night, mean (standard deviation) [2, 18]: 22.1 (13.5) Average activity counts every 15 secs
Actical night, mean (standard deviation) [2, 3]: 13.2 (11.8) Average activity counts every 15 secs
Actical night, mean (standard deviation) [2, 4]: 11.5 (7.3) Average activity counts every 15 secs
Actical night, mean (standard deviation) [2, 5]: 12.6 (9.9) Average activity counts every 15 secs
Actical night, mean (standard deviation) [2, 6]: 9.8 (6.8) Average activity counts every 15 secs
Actical night, mean (standard deviation) [2, 7]: 9.9 (7.4) Average activity counts every 15 secs
Actical night, mean (standard deviation) ([2]; 150 mg/day orally in 2 doses, Fleas (day of challenge)): 6.2 (3.8) Average activity counts every 15 secs
Actical night, mean (standard deviation) ([2]; 150 mg/day orally in 2 doses, Pre (before exposure to fleas)): 4.2 (2.2) Average activity counts every 15 secs
Actical night, mean (standard deviation) [2, 19]: 14.6 (4.2) Average activity counts every 15 secs
Actical night, mean (standard deviation) [2, 8]: 10.7 (6.8) Average activity counts every 15 secs
Actical night, mean (standard deviation) [2, 9]: 10.6 (7.5) Average activity counts every 15 secs
Actical night, mean (standard deviation) [2, 10]: 9.4 (4.2) Average activity counts every 15 secs
Actical night, mean (standard deviation) [2, 11]: 10.4 (6.5) Average activity counts every 15 secs
Actical night, mean (standard deviation) [2, 12]: 11.2 (7.4) Average activity counts every 15 secs
Actical night, mean (standard deviation) ([2]; 300 mg/day orally in 2 doses, Fleas (day of challenge)): 6.8 (3.0) Average activity counts every 15 secs
Actical night, mean (standard deviation) ([2]; 300 mg/day orally in 2 doses, Pre (before exposure to fleas)): 7.0 (3.8) Average activity counts every 15 secs
Actical night, mean (standard deviation) [2, 20]: 24.6 (22.5) Average activity counts every 15 secs
Actical night, mean (standard deviation) [2, 13]: 11.9 (4.8) Average activity counts every 15 secs
Actical night, mean (standard deviation) [2, 14]: 16.8 (9.5) Average activity counts every 15 secs
Actical night, mean (standard deviation) [2, 15]: 20.7 (10.5) Average activity counts every 15 secs
Actical night, mean (standard deviation) [2, 16]: 16.2 (13.2) Average activity counts every 15 secs
Actical night, mean (standard deviation) [2, 17]: 13.3 (10.2) Average activity counts every 15 secs
Control of nighttime activity back to baseline ([2]; Test Compound doses, in particular 50 mg, BID): positive efficacy
